One block for each compound: values may come before it.
Assays:
α7* nAChRs [1] = molecular target: T1, α7* nAChRs (Rattus norvegicus, UniProt Q05941); settings: rat brain membranes; cited from earlier work
α4β2* nAChRs = α4β2* nAChRs (Rattus norvegicus, UniProt P09483+P12390); settings: rat brain membranes; cited from earlier work
[2] = in vivo; cited from earlier work
[3] = tested on: nicotine self-administration; settings: rats; cited from earlier work
α7* nAChRs [4] = molecular target: T1, α7* nAChRs; assay: [3H]methyllycaconitine; format: binding; settings: 100 nM

T1 sequence (Q05941 23-502): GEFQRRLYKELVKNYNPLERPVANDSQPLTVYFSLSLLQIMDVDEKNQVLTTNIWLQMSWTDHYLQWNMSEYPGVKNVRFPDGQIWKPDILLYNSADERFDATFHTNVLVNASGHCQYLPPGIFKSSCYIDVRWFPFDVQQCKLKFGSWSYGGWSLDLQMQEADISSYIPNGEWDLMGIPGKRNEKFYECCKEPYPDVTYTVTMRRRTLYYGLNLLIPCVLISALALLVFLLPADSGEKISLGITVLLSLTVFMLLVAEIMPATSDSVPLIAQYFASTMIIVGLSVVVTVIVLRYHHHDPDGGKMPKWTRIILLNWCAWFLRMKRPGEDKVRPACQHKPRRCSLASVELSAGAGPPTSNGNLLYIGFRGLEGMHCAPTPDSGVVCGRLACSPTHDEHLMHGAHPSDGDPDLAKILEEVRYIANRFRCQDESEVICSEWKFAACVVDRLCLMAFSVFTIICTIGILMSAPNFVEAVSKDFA
Sequence of α4β2* nAChRs (P09483 31-630): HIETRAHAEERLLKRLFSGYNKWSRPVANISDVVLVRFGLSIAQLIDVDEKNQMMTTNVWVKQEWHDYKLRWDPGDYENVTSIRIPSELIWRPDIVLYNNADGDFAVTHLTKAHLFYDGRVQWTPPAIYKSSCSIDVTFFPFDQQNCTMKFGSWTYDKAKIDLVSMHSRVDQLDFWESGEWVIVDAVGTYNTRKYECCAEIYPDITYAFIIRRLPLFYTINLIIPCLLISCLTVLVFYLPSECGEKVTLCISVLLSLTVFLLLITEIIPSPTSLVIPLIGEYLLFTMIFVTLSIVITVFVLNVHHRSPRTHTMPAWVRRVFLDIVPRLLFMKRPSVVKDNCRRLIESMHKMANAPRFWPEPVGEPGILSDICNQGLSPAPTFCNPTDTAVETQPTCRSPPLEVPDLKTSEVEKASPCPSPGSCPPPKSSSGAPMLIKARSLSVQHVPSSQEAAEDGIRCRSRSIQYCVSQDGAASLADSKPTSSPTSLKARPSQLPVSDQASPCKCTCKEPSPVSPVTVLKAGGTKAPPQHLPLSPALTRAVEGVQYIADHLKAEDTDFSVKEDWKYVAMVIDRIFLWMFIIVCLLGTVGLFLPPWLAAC
Sequence of α4β2* nAChRs (P12390 25-500): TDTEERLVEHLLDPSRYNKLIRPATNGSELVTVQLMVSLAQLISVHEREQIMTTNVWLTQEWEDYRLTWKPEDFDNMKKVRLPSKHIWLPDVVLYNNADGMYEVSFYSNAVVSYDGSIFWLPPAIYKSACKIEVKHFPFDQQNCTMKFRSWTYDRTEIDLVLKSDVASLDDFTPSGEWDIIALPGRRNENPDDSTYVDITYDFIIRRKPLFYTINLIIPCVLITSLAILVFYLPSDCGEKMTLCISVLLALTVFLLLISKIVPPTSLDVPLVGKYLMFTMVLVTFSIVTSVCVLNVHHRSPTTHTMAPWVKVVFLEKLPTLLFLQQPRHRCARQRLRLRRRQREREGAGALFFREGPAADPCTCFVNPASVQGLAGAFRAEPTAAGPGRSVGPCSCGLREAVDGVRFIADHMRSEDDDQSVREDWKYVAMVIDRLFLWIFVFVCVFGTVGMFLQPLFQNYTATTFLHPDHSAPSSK

Compound: Cc1ccc[n+](CCCCCCCCCCCC[n+]2cccc(C)c2)c1.[Br-].[Br-] [Compound 2, N,N’-dodecane-1,12-diyl-bis-3-picolinium dibromide]
affinity for α7* nAChR binding site (α7* nAChRs [1]): no affinity
affinity for α4β2* nAChR binding site (α4β2* nAChRs): no affinity
brain bioavailability [2]: brain bio-available
effect on nicotine self-administration [3]: decrease nicotine self-administration

Compound: C(#Cc1cc(C#CCCC[n+]2cccc(Cc3ccccc3)c2)c(C#CCCC[n+]2cccc(Cc3ccccc3)c2)cc1C#CCCC[n+]1cccc(Cc2ccccc2)c1)CCC[n+]1cccc(Cc2ccccc2)c1.[Br-].[Br-].[Br-].[Br-] [Compound 8f]
inhibition in the MLA assay (α7* nAChRs [4]): significant inhibition

inhibition in the MLA assay (α7* nAChRs [4]): significant inhibition
Compound: C(#Cc1cc(C#CCCC[n+]2cccc(-c3ccccc3)c2)c(C#CCCC[n+]2cccc(-c3ccccc3)c2)cc1C#CCCC[n+]1cccc(-c2ccccc2)c1)CCC[n+]1cccc(-c2ccccc2)c1.[Br-].[Br-].[Br-].[Br-] [Compound 8i]
